Assay results published in ChEMBL document CHEMBL6178016, “Design, Synthesis, and Biological Evaluation of New PDE4 Inhibitors for the Treatment of Pressure Ulcers” (J Med Chem, 2025).
Activity calls are given as the source filed them. The rule behind the calls is not given here.

Experiments:
Cytochrome P450 2D6 = Cytochrome P450 2D6 (Homo sapiens, UniProt P10635); test: Inhibition of human CYP2D6; type: ADME
[1] = target: cGMP-inhibited 3',5'-cyclic phosphodiesterase 3A (Homo sapiens, UniProt Q14432); test: Inhibition of PDE3A (unknown origin)
Sequence of cGMP-inhibited 3',5'-cyclic phosphodiesterase 3A (Q14432 whole entry): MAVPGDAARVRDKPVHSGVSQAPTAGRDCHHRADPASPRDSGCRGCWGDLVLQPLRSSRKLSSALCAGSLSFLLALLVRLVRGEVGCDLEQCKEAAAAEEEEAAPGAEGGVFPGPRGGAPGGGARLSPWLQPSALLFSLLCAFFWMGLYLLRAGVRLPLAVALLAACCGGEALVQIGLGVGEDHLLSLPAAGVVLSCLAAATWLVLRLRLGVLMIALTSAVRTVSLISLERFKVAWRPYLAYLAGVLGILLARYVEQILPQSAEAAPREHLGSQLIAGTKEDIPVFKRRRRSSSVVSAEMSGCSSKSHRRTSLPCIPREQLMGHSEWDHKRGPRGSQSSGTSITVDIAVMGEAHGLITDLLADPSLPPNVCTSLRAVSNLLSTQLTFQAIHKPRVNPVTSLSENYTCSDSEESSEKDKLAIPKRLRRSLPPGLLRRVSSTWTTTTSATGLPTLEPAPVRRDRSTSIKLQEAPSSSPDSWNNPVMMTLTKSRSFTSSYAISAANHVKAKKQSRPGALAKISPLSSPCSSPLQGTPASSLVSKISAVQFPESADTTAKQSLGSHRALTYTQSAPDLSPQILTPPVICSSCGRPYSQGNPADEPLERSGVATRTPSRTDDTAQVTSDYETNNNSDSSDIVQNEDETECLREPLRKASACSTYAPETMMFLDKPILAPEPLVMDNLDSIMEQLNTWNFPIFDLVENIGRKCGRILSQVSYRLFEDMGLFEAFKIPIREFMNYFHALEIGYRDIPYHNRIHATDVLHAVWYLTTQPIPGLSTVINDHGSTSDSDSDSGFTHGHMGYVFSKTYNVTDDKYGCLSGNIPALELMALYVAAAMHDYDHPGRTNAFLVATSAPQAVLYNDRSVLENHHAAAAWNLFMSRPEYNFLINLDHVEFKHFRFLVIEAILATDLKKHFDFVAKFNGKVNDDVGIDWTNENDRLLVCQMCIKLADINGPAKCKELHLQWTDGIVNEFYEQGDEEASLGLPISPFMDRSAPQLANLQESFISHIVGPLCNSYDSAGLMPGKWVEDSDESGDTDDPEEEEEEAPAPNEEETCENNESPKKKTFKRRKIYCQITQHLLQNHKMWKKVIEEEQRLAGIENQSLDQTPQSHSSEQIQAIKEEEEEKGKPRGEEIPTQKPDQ

HUVEC = test: Inhibition of cell migration in HUVEC cells; type: functional, cell-based; settings: Homo sapiens, dose 5-20 µM
RAW264.7 [2] = test: Antiinflammatory activity against mouse RAW264.7 cells assessed as inhibition of LPS-induced NO release preincubated for 2 hrs followed by LPS stimulation and measured after 4 hrs by RT-PCR analysis; type: functional, cell-based
[3] = target: High affinity 3',5'-cyclic-AMP phosphodiesterase 7A (Homo sapiens, UniProt Q13946); test: Inhibition of PDE7A (unknown origin)
Sequence of High affinity 3',5'-cyclic-AMP phosphodiesterase 7A (Q13946 whole entry): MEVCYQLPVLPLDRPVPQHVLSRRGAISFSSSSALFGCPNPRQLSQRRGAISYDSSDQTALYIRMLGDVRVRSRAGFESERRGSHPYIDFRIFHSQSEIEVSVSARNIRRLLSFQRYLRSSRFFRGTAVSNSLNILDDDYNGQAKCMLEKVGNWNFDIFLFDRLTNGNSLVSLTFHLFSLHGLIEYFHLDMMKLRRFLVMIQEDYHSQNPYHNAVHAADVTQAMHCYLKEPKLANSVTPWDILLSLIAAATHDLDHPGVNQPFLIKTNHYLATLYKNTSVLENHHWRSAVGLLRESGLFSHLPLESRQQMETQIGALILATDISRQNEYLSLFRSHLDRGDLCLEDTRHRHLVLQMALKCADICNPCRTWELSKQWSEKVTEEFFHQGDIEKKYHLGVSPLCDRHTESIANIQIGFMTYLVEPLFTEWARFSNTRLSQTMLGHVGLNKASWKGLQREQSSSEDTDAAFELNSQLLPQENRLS

[4] = Acute toxicity in male Kunming mouse assessed as effect on pathological changes in lung at 500 to 4000 mg/kg measured after 14 days by H and E staining based analysis; type: organism-based; settings: in vivo, 336 h, dose 500-4000 mg/kg, time 14 day
Enterococcus faecalis = test: Antibacterial activity against Enterococcus faecalis BNCC296862 assessed as reduction in bacterial colonies growth at 512 ug/ml measured after 24 hrs by agar plate method; type: functional, organism-based; settings: dose 512.0 µg/ml
[5] = AUC (0 to t) in Sprague-Dawley rat at 5 mg/kg, iv; type: ADME, organism-based; settings: in vivo
[6] = Acute toxicity in female Kunming mouse assessed as effect on pathological changes in lung at 500 to 4000 mg/kg measured after 14 days by H and E staining based analysis; type: organism-based; settings: in vivo, 336 h, dose 500-4000 mg/kg, time 14 day
[7] = Acute toxicity in female Kunming mouse assessed as effect on weight at 500 to 4000 mg/kg measured after 14 days; type: organism-based; settings: in vivo, 336 h, dose 500-4000 mg/kg, time 14 day
Rattus norvegicus [8] = test: Antiinflammatory activity against male Sprague-Dawley rat pressure ulcer model assessed as appearance of orderly arranged cells at 0.625 to 2.5% administered as ointment by Masson staining based analysis; type: functional, organism-based
[9] = Acute toxicity in male Kunming mouse assessed as effect on pathological changes in heart at 500 to 4000 mg/kg measured after 14 days by H and E staining based analysis; type: organism-based; settings: in vivo, 336 h, dose 500-4000 mg/kg, time 14 day
[10] = Cmax in Sprague-Dawley rat at 10 mg/kg, po; type: ADME, organism-based; settings: in vivo
[11] = Acute toxicity in female Kunming mouse assessed as effect on pathological changes in spleen at 500 to 4000 mg/kg measured after 14 days by H and E staining based analysis; type: organism-based; settings: in vivo, 336 h, dose 500-4000 mg/kg, time 14 day
[12] = Acute toxicity in male Kunming mouse assessed as effect on pathological changes in spleen at 500 to 4000 mg/kg measured after 14 days by H and E staining based analysis; type: organism-based; settings: in vivo, 336 h, dose 500-4000 mg/kg, time 14 day
[13] = target: High affinity cAMP-specific and IBMX-insensitive 3',5'-cyclic phosphodiesterase 8A (Homo sapiens, UniProt O60658); test: Inhibition of PDE8A (unknown origin)
Sequence of High affinity cAMP-specific and IBMX-insensitive 3',5'-cyclic phosphodiesterase 8A (O60658 whole entry): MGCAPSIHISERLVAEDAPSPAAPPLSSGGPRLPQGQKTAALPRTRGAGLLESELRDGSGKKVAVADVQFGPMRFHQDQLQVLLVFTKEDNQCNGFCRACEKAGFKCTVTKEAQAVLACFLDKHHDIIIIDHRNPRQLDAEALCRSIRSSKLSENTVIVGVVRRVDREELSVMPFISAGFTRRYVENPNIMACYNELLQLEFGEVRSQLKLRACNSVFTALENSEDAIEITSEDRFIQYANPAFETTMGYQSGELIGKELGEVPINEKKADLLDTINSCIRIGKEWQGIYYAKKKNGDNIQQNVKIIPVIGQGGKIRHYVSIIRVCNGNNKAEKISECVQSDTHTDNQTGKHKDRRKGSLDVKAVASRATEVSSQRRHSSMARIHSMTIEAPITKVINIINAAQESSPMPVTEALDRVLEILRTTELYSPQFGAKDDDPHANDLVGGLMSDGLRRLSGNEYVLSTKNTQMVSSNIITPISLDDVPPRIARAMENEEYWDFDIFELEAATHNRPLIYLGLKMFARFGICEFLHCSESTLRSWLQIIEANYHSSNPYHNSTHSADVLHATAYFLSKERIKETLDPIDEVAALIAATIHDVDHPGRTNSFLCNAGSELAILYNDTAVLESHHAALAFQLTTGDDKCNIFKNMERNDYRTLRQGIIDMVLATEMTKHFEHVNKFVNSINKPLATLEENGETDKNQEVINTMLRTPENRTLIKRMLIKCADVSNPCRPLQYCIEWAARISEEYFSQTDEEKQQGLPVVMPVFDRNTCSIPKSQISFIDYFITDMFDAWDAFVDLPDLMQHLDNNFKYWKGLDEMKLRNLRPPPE

[14] = Tmax in Sprague-Dawley rat at 10 mg/kg, po; type: ADME, organism-based; settings: in vivo
[15] = Acute toxicity in male Kunming mouse assessed as effect on pathological changes in kidney at 500 to 4000 mg/kg measured after 14 days by H and E staining based analysis; type: organism-based; settings: in vivo, 336 h, dose 500-4000 mg/kg, time 14 day
[16] = target: Cone cGMP-specific 3',5'-cyclic phosphodiesterase subunit alpha' (Homo sapiens, UniProt P51160); test: Inhibition of PDE6C (unknown origin)
Rattus norvegicus [17] = test: Antiinflammatory activity against male Sprague-Dawley rat pressure ulcer model assessed as decrease in inflammatory cells in dermis at 0.625 to 2.5% administered as ointment by H and E staining based analysis; type: functional, organism-based
Rattus norvegicus [18] = organism: Rattus norvegicus; test: Antiinflammatory activity against male Sprague-Dawley rat pressure ulcer model assessed as increase in CREB phosphorylation expression by immunohistochemical staining based analysis; type: functional, organism-based
[19] = target: Voltage-gated inwardly rectifying potassium channel KCNH2 (Homo sapiens, UniProt Q12809); test: Inhibition of human ERG stably expressed in HEK293 cells by manual membrane clamp technique; type: toxicity, cell-based
Sequence of Voltage-gated inwardly rectifying potassium channel KCNH2 (Q12809 whole entry): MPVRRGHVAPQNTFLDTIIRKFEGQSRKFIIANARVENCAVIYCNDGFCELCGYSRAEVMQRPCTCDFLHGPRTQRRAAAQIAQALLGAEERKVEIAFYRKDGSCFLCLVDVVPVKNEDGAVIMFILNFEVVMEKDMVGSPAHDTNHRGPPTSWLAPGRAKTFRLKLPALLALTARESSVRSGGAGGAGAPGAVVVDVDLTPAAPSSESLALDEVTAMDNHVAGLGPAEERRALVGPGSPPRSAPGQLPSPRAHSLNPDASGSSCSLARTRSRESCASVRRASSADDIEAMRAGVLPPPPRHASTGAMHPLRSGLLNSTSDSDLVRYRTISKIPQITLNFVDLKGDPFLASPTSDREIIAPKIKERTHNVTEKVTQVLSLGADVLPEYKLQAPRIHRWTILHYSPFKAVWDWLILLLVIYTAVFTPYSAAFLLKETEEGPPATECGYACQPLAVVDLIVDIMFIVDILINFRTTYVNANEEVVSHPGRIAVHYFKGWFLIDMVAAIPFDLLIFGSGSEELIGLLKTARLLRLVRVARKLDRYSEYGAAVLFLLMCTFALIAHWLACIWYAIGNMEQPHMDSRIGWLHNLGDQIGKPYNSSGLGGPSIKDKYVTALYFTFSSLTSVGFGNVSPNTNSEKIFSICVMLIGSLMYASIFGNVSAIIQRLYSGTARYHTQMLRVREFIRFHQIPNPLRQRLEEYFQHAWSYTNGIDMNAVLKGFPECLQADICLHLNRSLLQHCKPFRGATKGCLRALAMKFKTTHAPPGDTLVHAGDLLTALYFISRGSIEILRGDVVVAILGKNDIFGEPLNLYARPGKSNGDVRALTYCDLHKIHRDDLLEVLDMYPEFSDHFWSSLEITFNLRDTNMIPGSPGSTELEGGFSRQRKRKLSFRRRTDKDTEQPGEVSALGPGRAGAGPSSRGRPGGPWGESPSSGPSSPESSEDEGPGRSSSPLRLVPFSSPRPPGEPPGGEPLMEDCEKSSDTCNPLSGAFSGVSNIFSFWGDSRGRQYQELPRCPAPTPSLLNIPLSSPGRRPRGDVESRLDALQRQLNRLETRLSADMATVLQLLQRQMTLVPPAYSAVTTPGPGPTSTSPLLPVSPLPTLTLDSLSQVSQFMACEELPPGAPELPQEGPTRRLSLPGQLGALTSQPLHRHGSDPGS

Enterococcus faecium = test: Antibacterial activity against Enterococcus faecium BNCC358275 assessed as reduction in bacterial colonies growth at 512 ug/ml measured after 24 hrs by agar plate method; type: functional, organism-based; settings: dose 512.0 µg/ml
Cytochrome P450 3A4 = Cytochrome P450 3A4 (Homo sapiens, UniProt P08684); test: Inhibition of human CYP3A4; type: ADME
Sequence of Cytochrome P450 3A4 (P08684 whole entry): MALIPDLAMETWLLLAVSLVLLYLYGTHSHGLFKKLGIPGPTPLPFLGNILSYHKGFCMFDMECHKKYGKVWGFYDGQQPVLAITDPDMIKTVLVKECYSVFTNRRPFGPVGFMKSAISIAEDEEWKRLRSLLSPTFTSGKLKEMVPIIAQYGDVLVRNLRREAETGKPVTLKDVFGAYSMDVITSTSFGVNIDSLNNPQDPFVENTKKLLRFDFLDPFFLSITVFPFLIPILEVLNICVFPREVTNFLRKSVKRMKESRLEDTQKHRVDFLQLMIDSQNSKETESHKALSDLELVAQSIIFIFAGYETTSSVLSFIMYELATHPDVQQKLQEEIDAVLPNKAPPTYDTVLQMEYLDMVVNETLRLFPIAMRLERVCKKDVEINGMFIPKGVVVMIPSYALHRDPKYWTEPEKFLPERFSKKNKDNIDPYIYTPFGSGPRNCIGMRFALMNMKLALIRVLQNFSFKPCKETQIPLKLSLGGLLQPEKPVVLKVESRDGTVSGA

RAW264.7 [20] = test: Antiinflammatory activity against LPS induced mouse RAW264.7 cells assessed as increase in CREB phosphorylation expression at 5 to 20 uM by immunofluorescence analysis; type: functional, cell-based; settings: dose 5-20 µM

Sequence of Cytochrome P450 2D6 (P10635 whole entry): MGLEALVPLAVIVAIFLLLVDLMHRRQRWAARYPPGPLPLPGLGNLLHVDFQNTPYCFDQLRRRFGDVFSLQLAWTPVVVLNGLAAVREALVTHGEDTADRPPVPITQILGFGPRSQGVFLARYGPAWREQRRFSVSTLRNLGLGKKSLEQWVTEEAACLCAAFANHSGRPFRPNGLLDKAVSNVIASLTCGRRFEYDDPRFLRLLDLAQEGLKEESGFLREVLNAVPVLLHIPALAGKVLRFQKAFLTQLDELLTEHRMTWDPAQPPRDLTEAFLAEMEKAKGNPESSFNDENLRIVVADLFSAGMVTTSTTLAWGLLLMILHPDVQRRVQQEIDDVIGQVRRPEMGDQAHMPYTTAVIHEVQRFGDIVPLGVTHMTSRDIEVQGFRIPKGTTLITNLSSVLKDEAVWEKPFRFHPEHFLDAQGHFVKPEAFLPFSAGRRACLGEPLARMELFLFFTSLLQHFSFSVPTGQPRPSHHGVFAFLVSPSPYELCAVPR

With `Cn1c(=O)c2c(ncn2CCC(=O)NNC(=O)c2cc3nccc(-c4ccc(OC(F)F)c(OCC5CC5)c4)n3n2)n(C)c1=O` the IC50 (Cytochrome P450 2D6) was > 50 µM, the IC50 [1] was > 50 µM and the inhibition (HUVEC) was “Dose-dependent-effect”. The IC50 (RAW264.7 [2]) was 2.32 µM, the IC50 [3] was 15.1 µM and the Activity [4] was “Non-toxic”. The Activity (Enterococcus faecalis) was “Active”, the AUC(0-t) [5] was 235 ng·h/mL and the Activity [6] was “Non-toxic”. The Activity [7] was “Non-toxic”, the Activity (Rattus norvegicus [8]) was “Active” and the Activity [9] was “Non-toxic”. For the same compound, the Cmax [10] was 14.4 ng/mL, the Activity [11] was “Non-toxic” and the Activity [12] was “Non-toxic”. The IC50 [13] was 1.72 µM, the Tmax [14] was 15 min and the Activity [15] was “Non-toxic”. For the same compound, the IC50 [16] was > 50 µM, the Activity (Rattus norvegicus [17]) was “Active” and the Activity (Rattus norvegicus [18]) was “Active”. The IC50 [19] was > 10 µM, the Activity (Enterococcus faecium) was “Active” and the IC50 (Cytochrome P450 3A4) was > 50 µM. The Activity (RAW264.7 [20]) was “Active”.
